Measured values as given in US20120029187A1, “HALOALKYLSULFONANILIDE DERIVATIVE” (Nissan Chemical Industries, Ltd., priority 2009, published 2012).

Assays:
Type in all cases: in vivo
barnyardgrass [1] = test: Test Example 1: herbicidal effects in preemergence treatment under submerged conditions; details: dose 2.52 g/a
How it was run: (§1)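 Flooded-paddy preemergence assay; EC diluted with water, surface-applied at weed seeding; doses g/a; rice transplanted at 2.5 leaves; 0–5 mortality score after 3 weeks.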

bulrush [2] = test: as above; details: dose 2.52 g/a
How it was run: as §1

ducksalad [3] = test: as above; details: dose 2.52 g/a
How it was run: as §1

transplanted rice = test: Test Example 1: preemergence treatment under submerged conditions, effect on crop; details: dose 2.52 g/a
How it was run: as §1

barnyardgrass [4] = test: Test Example 2: herbicidal effects during the vegetation period under submerged conditions; details: treatment during the vegetation period under submerged conditions; dose 2.52 g/a
How it was run: (§2)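 Barnyardgrass, bulrush and ducksalad were co-sown in alluvial soil flooded to 4 cm and grown in a greenhouse at 25 to 30° C. At the 1- or 2-leaf stage, water-diluted emulsifiable concentrates went onto the water surface at set doses (g/a). Herbicidal effect was scored three weeks later on a graded scale.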

bulrush [5] = test: as above; details: treatment during the vegetation period under submerged conditions; dose 2.52 g/a
How it was run: as §2

ducksalad [6] = test: as above; details: treatment during the vegetation period under submerged conditions; dose 2.52 g/a
How it was run: as §2

Italian ryegrass [7] = test: Test Example 3: herbicidal effects in soil treatment; details: dose 3.2 g/a
How it was run: (§3)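 Seeds were sown in sterilized diluvial soil and covered with about 1.5 cm of soil. Compounds, formulated as emulsifiable concentrates and diluted with water, were sprayed evenly over the soil surface at set doses in g/a. Herbicidal effect was scored on a rating scale three weeks later.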

barnyardgrass [8] = test: as above; details: dose 3.2 g/a
How it was run: as §3

beadstraw = test: as above; details: dose 3.2 g/a
How it was run: as §3

common chickweed [9] = test: as above; details: dose 3.2 g/a
How it was run: as §3

common lambsquater [10] = test: as above; details: dose 3.2 g/a
How it was run: as §3

common ragweed [11] = test: as above; details: dose 3.2 g/a
How it was run: as §3

giant foxtail [12] = test: as above; details: dose 3.2 g/a
How it was run: as §3

large crabgrass [13] = test: as above; details: dose 3.2 g/a
How it was run: as §3

redroot pigweed [14] = test: as above; details: dose 3.2 g/a
How it was run: as §3

velvetleaf [15] = test: as above; details: dose 3.2 g/a
How it was run: as §3

water foxtail [16] = test: as above; details: dose 3.2 g/a
How it was run: as §3

Italian ryegrass [17] = test: Test Example 4: herbicidal effect in foliage treatment; details: dose 3.2 g/a
How it was run: (§4)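 Foliar spray, post-emergence: 14-day-old greenhouse plants (25–30° C, diluvial soil) treated with water-diluted EC at set g/a doses; visual herbicidal score at 3 wk post-application.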

barnyardgrass [18] = test: as above; details: dose 3.2 g/a
How it was run: as §4

common chickweed [19] = test: as above; details: dose 3.2 g/a
How it was run: as §4

common lambsquater [20] = test: as above; details: dose 3.2 g/a
How it was run: as §4

common ragweed [21] = test: as above; details: dose 3.2 g/a
How it was run: as §4

giant foxtail [22] = test: as above; details: dose 3.2 g/a
How it was run: as §4

large crabgrass [23] = test: as above; details: dose 3.2 g/a
How it was run: as §4

posumbu knotweed = test: as above; details: dose 3.2 g/a
How it was run: as §4

redroot pigweed [24] = test: as above; details: dose 3.2 g/a
How it was run: as §4

velvetleaf [25] = test: as above; details: dose 3.2 g/a
How it was run: as §4

water foxtail [26] = test: as above; details: dose 3.2 g/a
How it was run: as §4

[27] = three weeks after the application

Question: For `CCC(=O)N(c1ccccc1CN1C(=O)CC(C)(C)OC1C)S(=O)(=O)C(F)(F)F` (stereo not shown) [II-73], which “A: barnyardgrass, herbicidal effect (evaluation scale 0-5)” value (barnyardgrass [1]) is on record?
Answer: The value was 5 (mortality of 90% or above (nearly complete death)).

Question: What about the “B: bulrush, herbicidal effect (evaluation scale 0-5)” value (bulrush [2]) of the same molecule?
Answer: The value was 5 (mortality of 90% or above (nearly complete death)).

Question: What about the “C: ducksalad, herbicidal effect (evaluation scale 0-5)” value (ducksalad [3]) of the same molecule?
Answer: Its value is 5 (mortality of 90% or above (nearly complete death)).

Question: What about the “a: transplanted rice, effect on crop (evaluation scale 0-5)” value (transplanted rice) of the same molecule?
Answer: Its value is 3 (mortality of at least 40% and less than 70%).

Question: And the “A: barnyardgrass, herbicidal effect (evaluation scale 0-5)” value (barnyardgrass [4])?
Answer: Its value is 5 (mortality of 90% or above (nearly complete death)).

Question: And the “B: bulrush, herbicidal effect (evaluation scale 0-5)” value (bulrush [5])?
Answer: Its value is 5 (mortality of 90% or above (nearly complete death)).

Question: What about the “C: ducksalad, herbicidal effect (evaluation scale 0-5)” value (ducksalad [6]) of the same molecule?
Answer: Its value is 5 (mortality of 90% or above (nearly complete death)).

Question: What about the “H: Italian ryegrass, herbicidal effect (evaluation scale 0-5)” value (Italian ryegrass [7]) of the same molecule?
Answer: Its value is 5 (mortality of 90% or above (nearly complete death)).

Question: What about the “A: barnyardgrass, herbicidal effect (evaluation scale 0-5)” value (barnyardgrass [8]) of the same molecule?
Answer: The value was 5 (mortality of 90% or above (nearly complete death)).

Question: And the “O: beadstraw, herbicidal effect (evaluation scale 0-5)” value (beadstraw)?
Answer: The value was 4 (mortality of at least 70% and less than 90%).

Question: And the “N: common chickweed, herbicidal effect (evaluation scale 0-5)” value (common chickweed [9])?
Answer: Its value is 0 (mortality of less than 5% (almost ineffective)).

Question: What about the “L: common lambsquater, herbicidal effect (evaluation scale 0-5)” value (common lambsquater [10]) of the same molecule?
Answer: The value was 0 (mortality of less than 5% (almost ineffective)).

Question: And the “J: common ragweed, herbicidal effect (evaluation scale 0-5)” value (common ragweed [11])?
Answer: Its value is 3 (mortality of at least 40% and less than 70%).

Question: What about the “E: giant foxtail, herbicidal effect (evaluation scale 0-5)” value (giant foxtail [12]) of the same molecule?
Answer: Its value is 5 (mortality of 90% or above (nearly complete death)).

Question: What about the “D: large crabgrass, herbicidal effect (evaluation scale 0-5)” value (large crabgrass [13]) of the same molecule?
Answer: Its value is 5 (mortality of 90% or above (nearly complete death)).

Question: And the “K: redroot pigweed, herbicidal effect (evaluation scale 0-5)” value (redroot pigweed [14])?
Answer: The value was 0 (mortality of less than 5% (almost ineffective)).

Question: What about the “I: velvetleaf, herbicidal effect (evaluation scale 0-5)” value (velvetleaf [15]) of the same molecule?
Answer: The value was 5 (mortality of 90% or above (nearly complete death)).

Question: What about the “G: water foxtail, herbicidal effect (evaluation scale 0-5)” value (water foxtail [16]) of the same molecule?
Answer: The value was 5 (mortality of 90% or above (nearly complete death)).

Question: And the “H: Italian ryegrass, herbicidal effect” value (Italian ryegrass [17]; [27])?
Answer: The value was 5 (mortality of 90% or above (nearly complete death)).

Question: What about the “A: barnyardgrass, herbicidal effect” value (barnyardgrass [18]; [27]) of the same molecule?
Answer: The value was 5 (mortality of 90% or above (nearly complete death)).

Question: What about the “N: common chickweed, herbicidal effect” value (common chickweed [19]; [27]) of the same molecule?
Answer: The value was 2 (mortality of at least 20% and less than 40%).

Question: What about the “L: common lambsquater, herbicidal effect” value (common lambsquater [20]; [27]) of the same molecule?
Answer: The value was 0 (mortality of less than 5% (almost ineffective)).

Question: What about the “J: common ragweed, herbicidal effect” value (common ragweed [21]; [27]) of the same molecule?
Answer: The value was 2 (mortality of at least 20% and less than 40%).

Question: And the “E: giant foxtail, herbicidal effect” value (giant foxtail [22]; [27])?
Answer: The value was 4 (mortality of at least 70% and less than 90%).

Question: And the “D: large crabgrass, herbicidal effect” value (large crabgrass [23]; [27])?
Answer: Its value is 4 (mortality of at least 70% and less than 90%).

Question: And the “M: posumbu knotweed, herbicidal effect” value (posumbu knotweed; [27])?
Answer: The value was 4 (mortality of at least 70% and less than 90%).

Question: And the “K: redroot pigweed, herbicidal effect” value (redroot pigweed [24]; [27])?
Answer: Its value is 0 (mortality of less than 5% (almost ineffective)).

Question: And the “I: velvetleaf, herbicidal effect” value (velvetleaf [25]; [27])?
Answer: Its value is 5 (mortality of 90% or above (nearly complete death)).

Question: And the “G: water foxtail, herbicidal effect” value (water foxtail [26]; [27])?
Answer: The value was 5 (mortality of 90% or above (nearly complete death)).

Question: What does the source list for `CC1(c2ccccc2)CC(=O)N(Cc2ccccc2NS(=O)(=O)C(F)(F)F)CO1` (stereo not shown) [II-57]?
Answer: A: barnyardgrass, herbicidal effect (evaluation scale 0-5) (barnyardgrass [1]): 5 (mortality of 90% or above (nearly complete death)); B: bulrush, herbicidal effect (evaluation scale 0-5) (bulrush [2]): 5 (mortality of 90% or above (nearly complete death)); C: ducksalad, herbicidal effect (evaluation scale 0-5) (ducksalad [3]): 5 (mortality of 90% or above (nearly complete death)); a: transplanted rice, effect on crop (evaluation scale 0-5) (transplanted rice): 0 (mortality of less than 5% (almost ineffective)); A: barnyardgrass, herbicidal effect (evaluation scale 0-5) (barnyardgrass [4]): 2 (mortality of at least 20% and less than 40%); B: bulrush, herbicidal effect (evaluation scale 0-5) (bulrush [5]): 5 (mortality of 90% or above (nearly complete death)); C: ducksalad, herbicidal effect (evaluation scale 0-5) (ducksalad [6]): 5 (mortality of 90% or above (nearly complete death)); H: Italian ryegrass, herbicidal effect (evaluation scale 0-5) (Italian ryegrass [7]): 5 (mortality of 90% or above (nearly complete death)); A: barnyardgrass, herbicidal effect (evaluation scale 0-5) (barnyardgrass [8]): 2 (mortality of at least 20% and less than 40%); O: beadstraw, herbicidal effect (evaluation scale 0-5) (beadstraw): 0 (mortality of less than 5% (almost ineffective)); N: common chickweed, herbicidal effect (evaluation scale 0-5) (common chickweed [9]): 4 (mortality of at least 70% and less than 90%); L: common lambsquater, herbicidal effect (evaluation scale 0-5) (common lambsquater [10]): 0 (mortality of less than 5% (almost ineffective)); J: common ragweed, herbicidal effect (evaluation scale 0-5) (common ragweed [11]): 0 (mortality of less than 5% (almost ineffective)); E: giant foxtail, herbicidal effect (evaluation scale 0-5) (giant foxtail [12]): 5 (mortality of 90% or above (nearly complete death)); D: large crabgrass, herbicidal effect (evaluation scale 0-5) (large crabgrass [13]): 3 (mortality of at least 40% and less than 70%); K: redroot pigweed, herbicidal effect (evaluation scale 0-5) (redroot pigweed [14]): 0 (mortality of less than 5% (almost ineffective)); I: velvetleaf, herbicidal effect (evaluation scale 0-5) (velvetleaf [15]): 5 (mortality of 90% or above (nearly complete death)); G: water foxtail, herbicidal effect (evaluation scale 0-5) (water foxtail [16]): 5 (mortality of 90% or above (nearly complete death)); H: Italian ryegrass, herbicidal effect (Italian ryegrass [17]; three weeks after application): 5 (mortality of 90% or above (nearly complete death)); A: barnyardgrass, herbicidal effect (barnyardgrass [18]; three weeks after application): 4 (mortality of at least 70% and less than 90%); N: common chickweed, herbicidal effect (common chickweed [19]; three weeks after application): 4 (mortality of at least 70% and less than 90%); L: common lambsquater, herbicidal effect (common lambsquater [20]; three weeks after application): 3 (mortality of at least 40% and less than 70%); J: common ragweed, herbicidal effect (common ragweed [21]; three weeks after application): 3 (mortality of at least 40% and less than 70%); E: giant foxtail, herbicidal effect (giant foxtail [22]; three weeks after application): 2 (mortality of at least 20% and less than 40%); D: large crabgrass, herbicidal effect (large crabgrass [23]; three weeks after application): 2 (mortality of at least 20% and less than 40%); M: posumbu knotweed, herbicidal effect (posumbu knotweed; three weeks after application): 3 (mortality of at least 40% and less than 70%); K: redroot pigweed, herbicidal effect (redroot pigweed [24]; three weeks after application): 0 (mortality of less than 5% (almost ineffective)); I: velvetleaf, herbicidal effect (velvetleaf [25]; three weeks after application): 3 (mortality of at least 40% and less than 70%); G: water foxtail, herbicidal effect (water foxtail [26]; three weeks after application): 3 (mortality of at least 40% and less than 70%)
